Measurements from patent publication US20250352539A1, “COMBINATION THERAPY FOR TREATING CANCER” (AstraZeneca AB, priority 2022, published 2025).
Several values for one entry are separate records, joined by “and”; a condition that tells them apart may be missing. Identical values can stand only once. Like-named read-outs stand apart in the source and are kept apart here.

Tests used:
Experiment in all cases: 144-hour CellTiter-Glo 2.0 proliferation assay
Format in all cases: cell-based
KURAMOCHI = KURAMOCHI ovarian; monotherapy; read-out: mono GI50
Experimental: (§1) Combination profiling was carried out in a panel of cancer cell lines utilising Horizon Discovery's High Throughput Screening platform.
(§2) Cell lines that have been preserved in liquid nitrogen are thawed and expanded in growth media (see Table 1). Once cells have reached expected doubling times, screening begins. Cells are seeded in 25 μl of growth media in black 384-well tissue culture treated plates (seeding density as noted in Table 11).
(§3) Cells are equilibrated in assay plates via centrifugation and placed at 37° C. 5% CO2 for twenty-four hours before treatment.
(§4) Compounds are transferred to assay plates using and Echo acoustic liquid handling system. 25 nl of each compound was added at the appropriate concentration for all combination dose points. Therefore, final assay volume would be […]. Assay plates are incubated with compound for 6 days and are then analysed using CellTiter-Glo 2.0. All data points are collected via automated processes and are subject to quality control and analysed.
(§5) Growth Inhibition (GI) is reported as a measure of cell growth. The GI percentages are calculated by applying the following test and equation: […]
(§6) where T is the signal measure for a test article, V is the untreated/vehicle-treated control measure, and Vo is the untreated/vehicle control measure at time zero (also colloquially referred as T0 plates). This formula is derived from the Growth Inhibition calculation used in the National Cancer Institute's NCI-60 high throughput screen. For the purposes of this report, all data analysis was performed in Growth Inhibition (except where noted).

SW837 = conditions: Homo sapiens; SW837 colorectal; monotherapy; read-out: mono GI50
Experimental: as §1, §2, §3, §4, §5, §6

LoVo = conditions: Homo sapiens; LoVo colorectal; monotherapy; read-out: mono GI50
Experimental: as §1, §2, §3, §4, §5, §6

OV7 = OV7 ovarian; monotherapy; read-out: mono GI50
Experimental: as §1, §2, §3, §4, §5, §6

PSN1 = conditions: monotherapy, read-out: mono GI50
Experimental: as §1, §2, §3, §4, §5, §6

HPAF-II = conditions: Homo sapiens; HPAF-II pancreatic; monotherapy; read-out: mono GI50
Experimental: as §1, §2, §3, §4, §5, §6

GCIY = conditions: Homo sapiens; GCIY gastric; monotherapy; read-out: mono GI50
Experimental: as §1, §2, §3, §4, §5, §6

NCI-SNU-1 = NCI-SNU-1 gastric; monotherapy; read-out: mono GI50
Experimental: as §1, §2, §3, §4, §5, §6

SK-OV-3 = conditions: Homo sapiens; SK-OV-3 ovarian; monotherapy; read-out: mono GI50
Experimental: as §1, §2, §3, §4, §5, §6

KE-39 = KE-39 gastric; monotherapy; read-out: mono GI50
Experimental: as §1, §2, §3, §4, §5, §6

SNU-668 = conditions: SNU668; SNU-668 gastric; monotherapy; read-out: mono GI50
Experimental: as §1, §2, §3, §4, §5, §6

A2780 = conditions: Homo sapiens; A2780 ovarian; monotherapy; read-out: mono GI50
Experimental: as §1, §2, §3, §4, §5, §6

BxPC-3 = conditions: monotherapy, read-out: mono GI50
Experimental: as §1, §2, §3, §4, §5, §6

MKN74 = conditions: Homo sapiens, MKN-74; MKN74 gastric; monotherapy; read-out: mono GI50
Experimental: as §1, §2, §3, §4, §5, §6

SNU-324 = SNU-324 pancreatic; monotherapy; read-out: mono GI50
Experimental: as §1, §2, §3, §4, §5, §6

OVK18 = OVK18 ovarian; monotherapy; read-out: mono GI50
Experimental: as §1, §2, §3, §4, §5, §6

RKO = conditions: Homo sapiens; RKO colorectal; monotherapy; read-out: mono GI50
Experimental: as §1, §2, §3, §4, §5, §6

COV362 = COV362 ovarian; monotherapy; read-out: mono GI50
Experimental: as §1, §2, §3, §4, §5, §6

OVSAHO = conditions: Homo sapiens; OVSAHO ovarian; monotherapy; read-out: mono GI50
Experimental: as §1, §2, §3, §4, §5, §6

LMSU = LMSU gastric; monotherapy; read-out: mono GI50
Experimental: as §1, §2, §3, §4, §5, §6

TOV-21G = conditions: Homo sapiens, TOV21G; TOV-21G ovarian; monotherapy; read-out: mono GI50
Experimental: as §1, §2, §3, §4, §5, §6

LS-513 = conditions: Homo sapiens; LS-513 colorectal; monotherapy; read-out: mono GI50
Experimental: as §1, §2, §3, §4, §5, §6

HT-115 = conditions: HT115; HT-115 colorectal; monotherapy; read-out: mono GI50
Experimental: as §1, §2, §3, §4, §5, §6

OVCAR-3 = conditions: Homo sapiens; OVCAR-3 ovarian; monotherapy; read-out: mono GI50
Experimental: as §1, §2, §3, §4, §5, §6

SW620 = conditions: Homo sapiens, SW-620; SW620 colorectal; monotherapy; read-out: mono GI50
Experimental: as §1, §2, §3, §4, §5, §6

MIA PaCa-2 = conditions: monotherapy, read-out: mono GI50
Experimental: as §1, §2, §3, §4, §5, §6

Gp2D = Gp2D colorectal; monotherapy; read-out: mono GI50
Experimental: as §1, §2, §3, §4, §5, §6

CFPAC-1 = conditions: Homo sapiens; CFPAC-1 pancreatic; monotherapy; read-out: mono GI50
Experimental: as §1, §2, §3, §4, §5, §6

C[C@@H]1COCCN1c1cc(C2([S@](C)(=N)=O)CC2)nc(-c2ccnc3[nH]ccc23)n1 [AZD6738, 4-{4-[(3R)-3-Methylmorpholin-4-yl]-6-[1-((R)—S-methylsulfonimidoyl)cyclopropyl]pyrimidin-2-yl}-1H-pyrrolo[2,3-b]-pyridine] was tested. Which GI50 (KURAMOCHI) did it give?
The GI50 was 0.729 µM.

And the GI50 (SW837)?
Its GI50 is 0.924 µM.

What about the GI50 (LoVo) of the same compound?
Its GI50 is 0.401 µM.

And the GI50 (OV7)?
The GI50 was 1.92 µM.

And the GI50 (PSN1; Homo sapiens, PSN1, PSN1 pancreatic)?
The GI50 was 0.859 µM.

And the GI50 (PSN1; PSN1 pancreatic)?
Its GI50 is 0.746 µM.

What about the GI50 (HPAF-II) of the same compound?
The GI50 was 1.03 µM.

What about the GI50 (GCIY) of the same compound?
Its GI50 is 0.179 µM.

And the GI50 (NCI-SNU-1)?
The GI50 was 1.09 µM.

And the GI50 (SK-OV-3)?
Its GI50 is 1.28 µM.

And the GI50 (KE-39)?
Its GI50 is 1.47 µM.

And the GI50 (SNU-668)?
The GI50 was 0.291 µM.

What about the GI50 (A2780) of the same compound?
The GI50 was 0.667 µM.

And the GI50 (BxPC-3; BxPC-3 pancreatic)?
The GI50 was 1.09 µM.

What about the GI50 (BxPC-3; Homo sapiens, BXPC-3, BxPC-3 pancreatic) of the same compound?
Its GI50 is 1.08 µM.

What about the GI50 (MKN74) of the same compound?
Its GI50 is 0.741 µM.

And the GI50 (SNU-324)?
The GI50 was 0.476 µM and 0.534 µM.

And the GI50 (OVK18)?
Its GI50 is 0.921 µM.

What about the GI50 (RKO) of the same compound?
The GI50 was 1.02 µM.

And the GI50 (COV362)?
Its GI50 is 1.06 µM.

What about the GI50 (OVSAHO) of the same compound?
The GI50 was 0.581 µM.

What about the GI50 (LMSU) of the same compound?
Its GI50 is 1.71 µM.

What about the GI50 (TOV-21G) of the same compound?
Its GI50 is 0.374 µM.

What about the GI50 (LS-513) of the same compound?
The GI50 was 0.645 µM.

And the GI50 (HT-115)?
The GI50 was 1.61 µM.

What about the GI50 (OVCAR-3) of the same compound?
The GI50 was 0.37 µM.

What about the GI50 (SW620) of the same compound?
Its GI50 is 0.853 µM.

And the GI50 (MIA PaCa-2; Homo sapiens, MIA PaCa-2, MIA PaCa-2 pancreatic)?
Its GI50 is 1.2 µM.

What about the GI50 (MIA PaCa-2; MIA PaCa-2 pancreatic) of the same compound?
The GI50 was 1.93 µM.

What about the GI50 (Gp2D) of the same compound?
The GI50 was 0.501 µM.

And the GI50 (CFPAC-1)?
Its GI50 is 0.757 µM.
